# Results reported in US20150125915A1, “Method for Producing Lactic Acid” (Kao Corporation, priority 2012, published 2015).
# Assays:
# [1] = tested on: Rhizopus oryzae JCM14625 strain (=NBRC 5384); assay: Evaluation of ability to produce lactic acid-3 (surfactant concentration in the spore germination medium); format: cell-based; conditions: no surfactant = 100
# Method: (1) 200 mL of a PDB medium non-supplemented or supplemented with 0.01, 0.05, 0.25, 0.50, 1.0, 1.5, or 2.5% (w/v) (final concentration) of sorbitan monolaurate (Rheodol(R) SP-L10, manufactured by Kao Corp.) was applied to a 500-mL baffled Erlenmeyer flask (manufactured by Asahi Glass Co., Ltd.). The Rhizopus oryzae spore suspension prepared in Production Example 1 was inoculated thereto at a dose of 1×10^3 spores/mL of the medium and then cultured at 27° C. for 3 days with stirring at 110 rpm.
# (2) The cultures were filtered through a filter support and a nylon net filter of 180 μm mesh size (manufactured by EMD Millipore) sterilized in advance to recover fungus bodies onto the filter. From 2.0 to 3.0 g of the recovered fungus bodies was inoculated to 100 mL of an inorganic culture medium (composition: 10% glucose, 0.1% ammonium sulfate, 0.06% potassium dihydrogen phosphate, 0.025% magnesium sulfate heptahydrate, 0.009% zinc sulfate heptahydrate, and 5.0% calcium carbonate; all the concentrations mean % (w/v)) applied to a 500-mL Erlenmeyer flask, and then cultured at 27° C. for approximately 40 hours with stirring at 220 rpm.
# (3) Control conditions in the absence of the surfactant involved culturing spores with stirring by the same procedures as in (1) using a PDB medium non-supplemented with the surfactant and then inoculating from 4 to 8 mL of the PDB seed culture medium to 100 mL of the inorganic culture medium by the same procedures as in (2), followed by culture.
# (4) Subsequently, the cultures thus obtained by culture in the inorganic culture medium were filtered through a filter support and a nylon net filter of 180 μm mesh size (manufactured by EMD Millipore) sterilized in advance to recover fungus bodies onto the filter. On this filter, the fungus bodies were further washed with from 50 to 200 mL of saline to obtain fungus bodies.
# 30 g of the prepared wet fungus bodies of the genus Rhizopus was inoculated to 100 mL of an inorganic culture medium for lactic acid production evaluation (composition: 12.5% glucose, 0.1% ammonium sulfate, 0.06% potassium dihydrogen phosphate, 0.025% magnesium sulfate heptahydrate, 0.009% zinc sulfate heptahydrate, and 6.25% calcium carbonate; all the concentrations mean % (w/v)) and then cultured at 33.5° C. with stirring at 170 rpm. The fungus body-free supernatant of the culture medium was recovered every 1 hour from 30 minutes after the fungus body inoculation. Glucose and lactic acid were quantified by the procedures described later in Reference Example 1. A relative value of the production rate of lactic acid was determined on the basis of the calculation method described in Reference Example 2.
# The concentration of lactic acid (unit: g of lactic acid/L of medium) in the supernatant sample of each culture medium was measured according to Reference Example 1 and divided by a time (unit: hr) required for change in lactic acid concentration to calculate the production rate of lactic acid per unit time (unit: g of lactic acid/L/hr). In addition, a relative value to the production rate of lactic acid under control conditions in each Production Example was determined.
# [2] = tested on: Rhizopus oryzae NBRC 4707; assay: Evaluation of ability to produce lactic acid-2, strain NBRC 4707; format: cell-based; conditions: 0.5% (w/v) at spore germination, control of the strain without surfactant = 100
# Method: (1) Spore suspensions were prepared in the same way as in Production Example 1 using Rhizopus oryzae NBRC 4707, NBRC 4785, NBRC 5384 (=JCM14625), and NBRC 5418 strains obtained from a culture collection NBRC.
# (2) Mycelia were prepared from the spores of each strain under the same conditions as in Production Example 2 involving stirring at 100 rpm using 60 mL of a PDB medium non-supplemented or supplemented with 0.5% (w/v) (final concentration) of the surfactant sorbitan monolaurate (Rheodol(R) SP-L10, manufactured by Kao Corp.).
# (3) The total amount of the fungus bodies obtained in (2) was inoculated to 100 mL of an inorganic culture medium under the same conditions as in Production Example 3 to grow the mycelia. […]
# 30 g of the prepared wet fungus bodies of each strain of the genus Rhizopus was inoculated to 100 mL of an inorganic culture medium for lactic acid production evaluation (composition: 12.5% glucose, 0.1% ammonium sulfate, 0.06% potassium dihydrogen phosphate, 0.025% magnesium sulfate heptahydrate, 0.009% zinc sulfate heptahydrate, and 6.25% calcium carbonate; all the concentrations mean % (w/v)) applied to a 500-mL Erlenmeyer flask, and then cultured at 33.5° C. with stirring at 170 rpm. The production rate of lactic acid was determined by the same procedures as in Test Example 2. […]
substance,measurement,setting,value
Sorbitan monolaurate,Production rate of lactic acid (relative value),[1]; 0.01% w/v in germination medium,119 relative value
same,Production rate of lactic acid (relative value),[1]; 0.05% w/v in germination medium,133 relative value
same,Production rate of lactic acid (relative value),[1]; 0.25% w/v in germination medium,116 relative value
same,Production rate of lactic acid (relative value),[1]; 0.50% w/v in germination medium,138 relative value
same,Production rate of lactic acid (relative value),[1]; 1.00% w/v in germination medium,140 relative value
same,Production rate of lactic acid (relative value),[1]; 1.50% w/v in germination medium,117 relative value
same,Production rate of lactic acid (relative value),[1]; 2.50% w/v in germination medium,98 relative value
same,Production rate of lactic acid (relative value),[2],135 relative value
